Source: US20250339409A1, “USES OF PAN BET INHIBITORS” (VYNE THERAPEUTICS INC., priority 2021, published 2025)

Test system: imiquimod-induced psoriasis
Assay: Imiquimod-induced psoriasis (Th17 inflammation) model in mice, topical treatment once daily D7-D13: PASI, modified PASI, body weight, use of enrichment, TEWL
Format: in vivo
Set-up: key to Mean score use enrichment: 0 = no use of dental rolls to 4 = use of all 4; key to PASI Mean score values: sum of erythema, induration, peeling scores, each 0-3 (0 = none)
Details: imiquimod-induced mice
Procedure: Thirty-six (36) female Balb/c mice are weighed and randomly divided into 9 groups (n=4) according to body weight on D1. For mice of native group 1 and tolerance groups 8 and 9, no induction of psoriasis is performed between D1 and D13. Psoriasis is induced in groups 2 to 7 by once daily topical application for 13 days (from day 1 to day 13) of 65 mg of Aldara™ cream (5.0% imiquimod) onto the shaved and epilated back of mice. Before the first treatment, a second randomization of mice of the 6 imiquimod-induced psoriasis groups is performed according to the severity of psoriasis (PASI), and also the body weight of mice. Starting on day 7 and until day 13, 100 mg of test formulations […] and 65 mg of vehicle (groups 1 and […]) are topically administered once daily for 7 consecutive days onto the shaved back skin of mice. Several measurements are taken during treatment period from day 7 to day 14: psoriasis index (PASI), body weight, use of enrichment and mortality. At the end of treatment period, TEWL is assessed, and blood and skin samples are collected. Histological analysis of skin samples is used for microscopic scoring of psoriasis and the determination of the thickness of parakeratosis and epidermis and blood analysis is used for assessing the level of proinflammatory biomarkers (cytokines assays). The effect of treatment of psoriasis induced mice with BETi formulations at the four dose levels are compared with Dermoval® cream containing 0.05% clobetasol propionate (reference) and vehicle (positive control) and also with healthy mice treated with vehicle (negative control).
PASI scoring takes into account the following 3 parameters: the presence of erythema on the skin, induration of the skin (thickening) and peeling of the skin at the area of the induction of psoriasis.
The presence of erythema on the skin at the area of induction of psoriasis with the following scoring grid: • 0=no or no more erythema on the skin, • 1=weak erythema on the skin, • 2=moderate erythema on the skin, • 3=important erythema on the skin.
The presence of induration of the skin at the area of induction of psoriasis with the following scoring grid: • 0=no or no more induration of the skin, • 1=weak induration of the skin, • 2=moderate induration of the skin, • 3=important induration of the skin.
The presence of peeling of the skin at the area of induction of psoriasis with the following scoring grid: • 0=no or no more dryness/peeling of the skin, • 1=weak dryness/peeling of the skin, • 2=moderate dryness/peeling of the skin, • 3=important dryness/peeling of the skin.
The sum of the mean scores of these 3 parameters result in the mean PASI score.
One of the issues with a steroid is that it causes skin thinning and continues to have an effect on no longer inflamed skin and the model set up and measurements above are not designed to reflect this negative effect. Therefore, a modified PASI (mPASI) is calculated in the same the manner as mean PASI score but excludes the scoring for induration (thickening of the skin).
Mice are weighed three times during the week of D1 to D7, and then daily during the week of D7 to D13, as well as on the day D14 when they are sacrificed. It should be noted that a characteristic body weight loss of mice is observed after the start of the induction of psoriasis, mainly during the first days following it. The body weight loss can reach between 10 to 15%.
For the duration of the experiment, dental rolls are used as enrichment and placed in each cage and replaced twice. Between D1 and D7, the number of dental rolls used by animals are determined twice in the morning, and are determined daily during D7 to D14, at the time of PASI or the tolerance assessment. The use of dental rolls is scored from 0=no use of dental rolls to 4=use of the 4 dental rolls. In the case where only half of a dental roll is used, a score of 0.5 is assigned. […]

## Cn1cc(-c2cccc(O)c2Oc2ccccc2)c2cc[nH]c2c1=O [BETi1]
D 7
  PASI Mean score values: 8.00
D 7, listed as BETI1 0.01%
  Modified PASI Mean score values: 5.75
D 7, listed as BETI1 0.1%
  Modified PASI Mean score values: 5.75
D 7, listed as BETI1 1.0%
  Modified PASI Mean score values: 5.50
D 7, listed as BETi 0.001%
  Mean score use enrichment: 4.00
D 7, listed as BETi 0.01%
  Mean score use enrichment: 3.50
D 7, listed as BETi 0.1%
  Mean score use enrichment: 3.00
D 7, listed as BETi1 0.001%
  Modified PASI Mean score values: 5.50
D 7, listed as BETi 1.0%
  Mean score use enrichment: 2.00
D 8-D 14, listed as BETi 0.001%
  Mean score use enrichment: 3.17
D 8-D 14, listed as BETi 0.01%
  Mean score use enrichment: 3.58
D 8-D 14, listed as BETi 0.1%
  Mean score use enrichment: 3.75
D 8-D 14, listed as BETi 1.0%
  Mean score use enrichment: 3.58
D 8, listed as BETI1 0.1%
  Modified PASI Mean score values: 6.00
  PASI Mean score values: 8.50
D 8, listed as BETI1 1.0%
  Modified PASI Mean score values: 6.25
  PASI Mean score values: 9.00
D 8, listed as BETi 0.001%
  Mean score use enrichment: 4.00
D 8, listed as BETi 0.01%
  Mean score use enrichment: 4.00
D 8, listed as BETi 0.1%
  Mean score use enrichment: 3.25
D 8, listed as BETi1 0.001%
  Modified PASI Mean score values: 7.00
  PASI Mean score values: 10.00
D 8, listed as BETi1 0.01%
  Modified PASI Mean score values: 5.50
  PASI Mean score values: 8.25
D 8, listed as BETi 1.0%
  Mean score use enrichment: 2.25
D 9, listed as BETI1 0.1%
  Modified PASI Mean score values: 4.50
  PASI Mean score values: 7.25
D 9, listed as BETI1 1.0%
  Modified PASI Mean score values: 5.75
  PASI Mean score values: 8.50
D 9, listed as BETi 0.001%
  Mean score use enrichment: 1.00
D 9, listed as BETi 0.01%
  Mean score use enrichment: 2.25
D 9, listed as BETi 0.1%
  Mean score use enrichment: 2.75
D 9, listed as BETi1 0.001%
  Modified PASI Mean score values: 6.25
  PASI Mean score values: 9.25
D 9, listed as BETi1 0.01%
  Modified PASI Mean score values: 4.00
  PASI Mean score values: 6.75
D 9, listed as BETi 1.0%
  Mean score use enrichment: 2.00
D 10, listed as BETI1 0.1%
  Modified PASI Mean score values: 2.75
  PASI Mean score values: 4.50
D 10, listed as BETI1 1.0%
  Modified PASI Mean score values: 4.75
  PASI Mean score values: 7.25
D 10, listed as BETi 0.001%
  Mean score use enrichment: 2.25
D 10, listed as BETi 0.01%
  Mean score use enrichment: 3.25
D 10, listed as BETi 0.1%
  Mean score use enrichment: 3.75
D 10, listed as BETi1 0.001%
  Modified PASI Mean score values: 5.50
  PASI Mean score values: 8.50
D 10, listed as BETi1 0.01%
  Modified PASI Mean score values: 3.50
  PASI Mean score values: 6.00
D 10, listed as BETi 1.0%
  Mean score use enrichment: 3.00
D 11, listed as BETI1 0.1%
  Modified PASI Mean score values: 1.25
  PASI Mean score values: 2.75
D 11, listed as BETI1 1.0%
  Modified PASI Mean score values: 3.50
  PASI Mean score values: 5.50
D 11, listed as BETi 0.001%
  Mean score use enrichment: 3.75
D 11, listed as BETi 0.01%
  Mean score use enrichment: 4.00
D 11, listed as BETi 0.1%
  Mean score use enrichment: 4.00
D 11, listed as BETi1 0.001%
  Modified PASI Mean score values: 5.50
  PASI Mean score values: 8.00
D 11, listed as BETi1 0.01%
  Mean body weights: 17.93
  Modified PASI Mean score values: 2.75
  PASI Mean score values: 5.00
D 11, listed as BETi 1.0%
  Mean score use enrichment: 3.50
D 12, listed as BETI1 0.1%
  Modified PASI Mean score values: 0.50
  PASI Mean score values: 1.00
D 12, listed as BETI1 1.0%
  Modified PASI Mean score values: 4.25
  PASI Mean score values: 7.25
D 12, listed as BETi 0.001%
  Mean score use enrichment: 4.00
D 12, listed as BETi 0.01%
  Mean score use enrichment: 4.00
D 12, listed as BETi 0.1%
  Mean score use enrichment: 4.00
D 12, listed as BETi1 0.001%
  Modified PASI Mean score values: 4.50
  PASI Mean score values: 6.00
D 12, listed as BETi1 0.01%
  Modified PASI Mean score values: 1.00
  PASI Mean score values: 2.25
D 12, listed as BETi 1.0%
  Mean score use enrichment: 2.25
D 13, listed as BETI1 0.1%
  Modified PASI Mean score values: 0.50
  PASI Mean score values: 1.00
D 13, listed as BETI1 1.0%
  Modified PASI Mean score values: 3.25
  PASI Mean score values: 5.25
D 13, listed as BETi 0.001%
  Mean score use enrichment: 4.00
D 13, listed as BETi 0.01%
  Mean score use enrichment: 4.00
D 13, listed as BETi 0.1%
  Mean score use enrichment: 4.00
D 13, listed as BETi1 0.001%
  Modified PASI Mean score values: 4.00
  PASI Mean score values: 5.50
D 13, listed as BETi1 0.01%
  Modified PASI Mean score values: 1.75
  PASI Mean score values: 2.75
D 13, listed as BETi 1.0%
  Mean score use enrichment: 2.75
D 14
  Mean score use enrichment: 4.00
D14, Lower back, listed as BETi1 1.0%
  Mean TEWL score values: 30.63 g/h/m2
D14, Lower back, listed as BETi10.001%
  Mean TEWL score values: 42.11 g/h/m2
D14, Lower back, listed as BETi10.01%
  Mean TEWL score values: 57.25 g/h/m2
D14, Lower back, listed as BETi10.1%
  Mean TEWL score values: 39.27 g/h/m2
D14, Mean, listed as BETi1 1.0%
  Mean TEWL score values: 38.60 g/h/m2
D14, Mean, listed as BETi10.001%
  Mean TEWL score values: 40.35 g/h/m2
D14, Mean, listed as BETi10.01%
  Mean TEWL score values: 39.55 g/h/m2
D14, Mean, listed as BETi10.1%
  Mean TEWL score values: 27.14 g/h/m2
D14, Mid back, listed as BETi1 1.0%
  Mean TEWL score values: 40.80 g/h/m2
D14, Mid back, listed as BETi10.001%
  Mean TEWL score values: 41.26 g/h/m2
D14, Mid back, listed as BETi10.01%
  Mean TEWL score values: 34.53 g/h/m2
D14, Mid back, listed as BETi10.1%
  Mean TEWL score values: 24.04 g/h/m2
D14, Upper back, listed as BETi1 1.0%
  Mean TEWL score values: 44.36 g/h/m2
D14, Upper back, listed as BETi10.001%
  Mean TEWL score values: 37.67 g/h/m2
D14, Upper back, listed as BETi10.01%
  Mean TEWL score values: 26.87 g/h/m2
D14, Upper back, listed as BETi10.1%
  Mean TEWL score values: 18.11 g/h/m2
D 14, listed as BETI1 0.1%
  Modified PASI Mean score values: 0.50
  PASI Mean score values: 1.25
D 14, listed as BETI1 1.0%
  Modified PASI Mean score values: 3.50
  PASI Mean score values: 5.00
D 14, listed as BETi1 0.001%
  Modified PASI Mean score values: 3.75
  PASI Mean score values: 5.50
D 14, listed as BETi1 0.01%
  Modified PASI Mean score values: 1.50
  PASI Mean score values: 2.25
End of treatment
  clinical signs: substantial resolution of clinical signs
Topical 7 days
  dermal tolerance: no evidence of dermal tolerance issues
Treatment Day 7
  reduction in mPASI score (composite inflammation severity score) relative to vehicle control group: 94%
Listed as BETi1 -0.001%
  Absolute Body Weight Change from day 1 to day 14, D14 − D1, individual mouse: 1.58
